According to patent US20080009418A1, “Selective Inhibitors” (Alchemia LTD., priority 2004, published 2008):

Tests used:
[1] = biological target: T1, Human μ-opioid (MOP) (Homo sapiens, UniProt P35372); experiment: Radioligand binding, human μ-opioid (MOP) membranes, FlashPlate, [3H]-Naloxone; conditions: compound at 10 μM, [3H]-Naloxone
T1 construct: purchased Perkin Elmer Biosignal
Method in brief: (§1)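 Cloned human receptor membranes were coated onto FlashPlate wells and incubated with radioligand and compound (added from a 0.5 mM DMSO daughter plate) for 1 hour at room temperature in the dark. Scintillation counting gave percent inhibition, with DMSO defining total and reference ligand defining non-specific binding.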

[2] = biological target: T2, Human δ-opioid (DOP) (Homo sapiens, UniProt P41143); experiment: Radioligand binding, human δ-opioid (DOP) membranes, FlashPlate, [3H]-Bremazocine; conditions: compound at 10 μM, [3H]-Bremazocine
T2 construct: purchased Perkin Elmer Biosignal
T2 sequence (P41143 whole entry): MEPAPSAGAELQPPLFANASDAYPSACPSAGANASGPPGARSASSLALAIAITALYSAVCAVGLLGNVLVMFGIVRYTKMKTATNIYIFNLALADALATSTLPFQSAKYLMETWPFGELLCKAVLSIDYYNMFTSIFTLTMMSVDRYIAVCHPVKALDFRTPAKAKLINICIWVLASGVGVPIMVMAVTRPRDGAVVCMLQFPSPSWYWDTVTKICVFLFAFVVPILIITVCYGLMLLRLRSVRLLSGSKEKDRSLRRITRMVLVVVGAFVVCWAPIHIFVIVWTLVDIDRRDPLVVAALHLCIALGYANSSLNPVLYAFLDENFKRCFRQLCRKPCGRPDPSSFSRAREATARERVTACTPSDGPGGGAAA
Method in brief: as §1

[3] = biological target: T3, Human neurokinin (NK1) (Homo sapiens, UniProt P25103); experiment: Radioligand binding, human neurokinin NK1 membranes, filtration, [125I]-Substance P; conditions: compound at 10 μM, [125I]-Substance P
T3 construct: purchased Perkin Elmer Biosignal
T3 sequence (P25103 whole entry): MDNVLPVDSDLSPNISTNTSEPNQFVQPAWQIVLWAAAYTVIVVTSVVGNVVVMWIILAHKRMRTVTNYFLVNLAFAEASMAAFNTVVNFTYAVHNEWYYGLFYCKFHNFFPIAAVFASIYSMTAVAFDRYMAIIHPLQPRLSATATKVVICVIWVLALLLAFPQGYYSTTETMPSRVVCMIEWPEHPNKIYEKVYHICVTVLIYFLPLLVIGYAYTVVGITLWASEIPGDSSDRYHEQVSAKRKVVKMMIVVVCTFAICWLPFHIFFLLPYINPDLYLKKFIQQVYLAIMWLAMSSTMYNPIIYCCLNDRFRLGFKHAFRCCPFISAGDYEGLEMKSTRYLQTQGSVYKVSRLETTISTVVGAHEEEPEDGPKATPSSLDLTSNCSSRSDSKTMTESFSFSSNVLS
Method in brief: (§2)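 Percent inhibition of radioligand binding measured on recombinant human membranes: NK1 with [125I]-Substance P, KOP with [3H]-Diprenorphine. Incubation 1 h at room temperature, then harvest onto 0.3% PEI-soaked filters, cold Tris-HCl pH 7.4 washes and scintillation counting; non-specific binding from reference ligand wells.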

[4] = biological target: T4, Human opioid (ORL1) (Homo sapiens, UniProt P41146); experiment: Radioligand binding, human opioid ORL1 membranes, FlashPlate, [125I]-Nociceptin; conditions: compound at 10 μM, [125I]-Nociceptin
T4 construct: purchased Perkin Elmer Biosignal
T4 sequence (P41146 whole entry): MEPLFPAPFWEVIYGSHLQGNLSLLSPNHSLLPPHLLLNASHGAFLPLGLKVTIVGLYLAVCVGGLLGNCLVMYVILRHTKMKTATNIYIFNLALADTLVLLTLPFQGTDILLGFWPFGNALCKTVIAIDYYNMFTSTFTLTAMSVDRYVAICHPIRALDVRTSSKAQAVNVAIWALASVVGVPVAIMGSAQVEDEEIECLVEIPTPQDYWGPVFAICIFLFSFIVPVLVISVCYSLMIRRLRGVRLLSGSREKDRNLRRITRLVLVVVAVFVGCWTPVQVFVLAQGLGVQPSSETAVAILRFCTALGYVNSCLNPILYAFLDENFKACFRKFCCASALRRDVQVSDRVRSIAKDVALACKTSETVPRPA
Method in brief: as §1

[5] = biological target: T5, Human κ-Opioid (KOP) (Homo sapiens, UniProt P41145); experiment: Radioligand binding, human κ-opioid (KOP) membranes, filtration, [3H]-Diprenorphine; conditions: compound at 10 μM, [3H]-Diprenorphine
T5 construct: purchased Perkin Elmer Biosignal
T5 sequence (P41145 whole entry): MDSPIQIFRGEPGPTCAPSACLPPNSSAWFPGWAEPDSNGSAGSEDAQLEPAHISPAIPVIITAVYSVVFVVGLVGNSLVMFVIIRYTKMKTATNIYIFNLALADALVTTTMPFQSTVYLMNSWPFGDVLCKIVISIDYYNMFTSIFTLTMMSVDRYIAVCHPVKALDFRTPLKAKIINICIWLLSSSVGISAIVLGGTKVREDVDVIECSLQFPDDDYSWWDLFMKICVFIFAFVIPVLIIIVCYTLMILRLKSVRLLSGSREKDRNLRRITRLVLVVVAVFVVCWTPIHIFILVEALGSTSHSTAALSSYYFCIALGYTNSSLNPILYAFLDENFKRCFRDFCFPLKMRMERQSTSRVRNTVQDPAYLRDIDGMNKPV
Method in brief: as §2

[6] = biological target: T6, Human melanin-concentrating hormone (MCH1) (Homo sapiens, UniProt Q99705); experiment: Radioligand binding, human melanin-concentrating hormone MCH1 membranes, FlashPlate, [125I]-S36057; conditions: compound at 10 μM
T6 construct: purchased Perkin Elmer Biosignal
T6 sequence (Q99705 whole entry): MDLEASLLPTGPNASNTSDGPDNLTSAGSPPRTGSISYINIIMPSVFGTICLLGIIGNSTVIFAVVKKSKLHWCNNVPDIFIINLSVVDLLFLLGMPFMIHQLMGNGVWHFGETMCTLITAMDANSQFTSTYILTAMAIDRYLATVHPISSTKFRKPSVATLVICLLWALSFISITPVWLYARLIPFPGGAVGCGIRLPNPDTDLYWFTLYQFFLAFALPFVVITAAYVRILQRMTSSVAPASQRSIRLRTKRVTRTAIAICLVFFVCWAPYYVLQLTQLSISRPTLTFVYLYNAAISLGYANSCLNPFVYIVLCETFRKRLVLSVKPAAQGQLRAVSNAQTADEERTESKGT
Method in brief: as §1

[7] = biological target: T7, Human melanocortin (MC5) (Homo sapiens, UniProt P33032); experiment: Radioligand binding, human melanocortin MC5 membranes, FlashPlate, [125I]-NDP-αMSH; conditions: compound at 10 μM, [125I]-NDP-αMSH
T7 construct: purchased Perkin Elmer Biosignal
T7 sequence (P33032 whole entry): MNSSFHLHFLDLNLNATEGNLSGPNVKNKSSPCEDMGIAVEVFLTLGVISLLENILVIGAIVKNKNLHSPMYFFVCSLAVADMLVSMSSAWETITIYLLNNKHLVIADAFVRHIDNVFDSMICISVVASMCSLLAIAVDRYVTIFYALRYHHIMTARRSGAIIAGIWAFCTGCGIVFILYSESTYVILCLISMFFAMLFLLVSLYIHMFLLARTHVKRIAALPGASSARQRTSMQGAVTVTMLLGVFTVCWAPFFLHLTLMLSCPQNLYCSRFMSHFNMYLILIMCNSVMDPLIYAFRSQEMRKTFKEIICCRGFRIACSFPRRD
Method in brief: as §1

[8] = biological target: T8, Mouse urotensin (mUR2) (Mus musculus, UniProt Q8VIH9); experiment: Radioligand binding, mouse urotensin mUR2 membranes, FlashPlate, [125I]-Urotensin II; conditions: compound at 10 μM, [125I]-Urotensin II
T8 construct: purchased Perkin Elmer Biosignal
T8 sequence (Q8VIH9 1-385): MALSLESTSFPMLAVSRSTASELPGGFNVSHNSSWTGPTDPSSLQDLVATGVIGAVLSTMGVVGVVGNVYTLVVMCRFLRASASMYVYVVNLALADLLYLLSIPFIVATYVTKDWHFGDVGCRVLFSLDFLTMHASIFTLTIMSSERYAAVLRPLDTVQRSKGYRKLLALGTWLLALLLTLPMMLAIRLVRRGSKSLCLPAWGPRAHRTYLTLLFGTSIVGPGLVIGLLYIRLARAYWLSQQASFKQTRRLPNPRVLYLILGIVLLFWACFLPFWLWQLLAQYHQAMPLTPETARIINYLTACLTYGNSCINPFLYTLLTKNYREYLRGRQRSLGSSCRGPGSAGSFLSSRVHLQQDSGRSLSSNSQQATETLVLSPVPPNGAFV
Method in brief: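 Cloned mouse urotensin (mUR2) receptor membranes from Perkin Elmer Biosignal were immobilized in FlashPlate microplates using a proprietary coating. Each well got 19.5 μl buffer, then 0.5 μl of DMSO, reference ligand, or compound. Adding 5 μl of [125I]-Urotensin II, diluted to 5× final concentration in binding buffer, started binding. Plates were sealed with TopSeal-A and incubated 1 hour at room temperature in the dark. Wells were counted for 30 seconds each on a TopCount after a 60-second delay, and percentage inhibition was calculated.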

[9] = biological target: T9, Human Melanocortin (MC4) (Homo sapiens, UniProt P32245); experiment: Radioligand binding, human melanocortin MC4 membranes, FlashPlate, [125I]-NDP-αMSH; conditions: compound at 10 μM, [125I]-NDP-αMSH
T9 construct: purchased Perkin Elmer Biosignal
T9 sequence (P32245 whole entry): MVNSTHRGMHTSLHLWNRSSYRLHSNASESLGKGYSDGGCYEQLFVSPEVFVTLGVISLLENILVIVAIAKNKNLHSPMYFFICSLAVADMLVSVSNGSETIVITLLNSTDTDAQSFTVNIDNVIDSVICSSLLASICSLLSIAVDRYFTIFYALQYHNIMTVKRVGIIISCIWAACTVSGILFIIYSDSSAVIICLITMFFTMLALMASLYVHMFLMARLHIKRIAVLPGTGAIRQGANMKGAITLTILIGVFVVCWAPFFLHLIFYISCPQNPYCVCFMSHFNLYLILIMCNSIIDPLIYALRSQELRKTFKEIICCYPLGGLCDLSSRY
Method in brief: as §1

[10] = biological target: T10, Human neuropeptide Y (NPY-Y1) (Homo sapiens, UniProt P25929); experiment: Radioligand binding, human neuropeptide Y NPY-Y1 membranes, FlashPlate, [125I]-PYY; conditions: compound at 10 μM, [125I]-PYY
T10 construct: purchased Perkin Elmer Biosignal
T10 sequence (P25929 1-384): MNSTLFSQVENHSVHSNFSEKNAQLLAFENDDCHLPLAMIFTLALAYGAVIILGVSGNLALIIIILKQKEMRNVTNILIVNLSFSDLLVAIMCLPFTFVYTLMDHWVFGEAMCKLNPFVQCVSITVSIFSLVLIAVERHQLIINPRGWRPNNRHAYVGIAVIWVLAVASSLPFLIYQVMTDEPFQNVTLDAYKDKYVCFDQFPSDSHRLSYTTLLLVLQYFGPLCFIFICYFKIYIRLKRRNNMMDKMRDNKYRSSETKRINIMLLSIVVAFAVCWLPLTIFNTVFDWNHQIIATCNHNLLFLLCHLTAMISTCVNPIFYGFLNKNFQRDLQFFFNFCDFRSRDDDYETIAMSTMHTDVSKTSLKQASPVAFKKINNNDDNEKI
Method in brief: as §1

[11] = biological target: T11, Human Melanocortin (MC3) (Homo sapiens, UniProt P41968); experiment: Radioligand binding, human melanocortin MC3 membranes, FlashPlate, [125I]-NDP-αMSH; conditions: compound at 10 μM, [125I]-NDP-αMSH
T11 construct: purchased Perkin Elmer Biosignal
T11 sequence (P41968 whole entry): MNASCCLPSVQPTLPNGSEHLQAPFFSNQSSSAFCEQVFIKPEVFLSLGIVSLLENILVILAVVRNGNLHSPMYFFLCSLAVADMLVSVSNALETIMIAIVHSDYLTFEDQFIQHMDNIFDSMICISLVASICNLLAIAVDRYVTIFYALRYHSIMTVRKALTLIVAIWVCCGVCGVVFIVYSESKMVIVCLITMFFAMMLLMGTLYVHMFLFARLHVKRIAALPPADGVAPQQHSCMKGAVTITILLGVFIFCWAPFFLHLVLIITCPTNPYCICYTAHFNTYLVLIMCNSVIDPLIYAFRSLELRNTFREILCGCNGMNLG
Method in brief: as §1

T1 sequence (P35372 whole entry): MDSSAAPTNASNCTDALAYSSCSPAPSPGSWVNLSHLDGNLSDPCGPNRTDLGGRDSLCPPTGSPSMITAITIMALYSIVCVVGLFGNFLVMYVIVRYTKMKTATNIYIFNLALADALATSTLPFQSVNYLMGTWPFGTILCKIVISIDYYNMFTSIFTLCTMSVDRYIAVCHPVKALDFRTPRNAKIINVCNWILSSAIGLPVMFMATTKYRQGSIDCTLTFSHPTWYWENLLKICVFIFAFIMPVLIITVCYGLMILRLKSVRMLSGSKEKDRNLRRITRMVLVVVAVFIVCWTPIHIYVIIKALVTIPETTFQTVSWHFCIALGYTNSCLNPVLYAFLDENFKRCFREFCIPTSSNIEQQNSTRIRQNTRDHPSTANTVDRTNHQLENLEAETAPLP

COCC1OC(OCc2ccc3ccccc3c2)C(NC(=O)CCNC(=N)N)C(OCc2ccc(-c3ccccc3)cc2)C1O (stereo not shown) [compound 244]
A7: inhibition of radioligand binding ([1]; FlashPlate): − (“−” indicates less than 50% inhibition at 10 μM)
A1: inhibition of radioligand binding ([2]; FlashPlate): − (“−” indicates less than 50% inhibition at 10 μM)
A8: inhibition of radioligand binding ([3]; filtration): + (“+” indicates greater than 50% inhibition at 10 μM)
A10: inhibition of radioligand binding ([4]; FlashPlate): − (“−” indicates less than 50% inhibition at 10 μM)
A2: inhibition of radioligand binding ([5]; filtration): − (“−” indicates less than 50% inhibition at 10 μM)
A6: inhibition of radioligand binding ([6]; [125I]-S36057, FlashPlate): + (“+” indicates greater than 50% inhibition at 10 μM)
A5: inhibition of radioligand binding ([7]; FlashPlate): + (“+” indicates greater than 50% inhibition at 10 μM)
A11: inhibition of radioligand binding ([8]; FlashPlate): − (“−” indicates less than 50% inhibition at 10 μM)
A4: inhibition of radioligand binding ([9]; FlashPlate): + (“+” indicates greater than 50% inhibition at 10 μM)
A9: inhibition of radioligand binding ([10]; FlashPlate): + (“+” indicates greater than 50% inhibition at 10 μM)
A3: inhibition of radioligand binding ([11]; FlashPlate): + (“+” indicates greater than 50% inhibition at 10 μM)

NCCCC(=O)NC1C(OCc2ccc3ccccc3c2)OC(COCc2ccc(Cl)cc2)C(O)C1OCc1ccc(Cl)cc1 (single isomer, unassigned) [compound 458]
A7: inhibition of radioligand binding ([1]; human MOP membranes, 10 µM): + (“+” indicates greater than 50% inhibition at 10 μM)
A1: inhibition of radioligand binding ([2]; human DOP membranes): − (“−” indicates less than 50% inhibition at 10 μM)
A8: inhibition of radioligand binding ([3]; human NK1 membranes): + (“+” indicates greater than 50% inhibition at 10 μM)
A10: inhibition of radioligand binding ([4]; human ORL1 membranes, 10 µM): + (“+” indicates greater than 50% inhibition at 10 μM)
A2: inhibition of radioligand binding ([5]; human KOP membranes): − (“−” indicates less than 50% inhibition at 10 μM)
A6: inhibition of radioligand binding ([6]; [125I]-S36057, human MCH1 membranes, 10 µM): + (“+” indicates greater than 50% inhibition at 10 μM)
A5: inhibition of radioligand binding ([7]; human MC5 membranes): + (“+” indicates greater than 50% inhibition at 10 μM)
A11: inhibition of radioligand binding ([8]; mouse mUR2 membranes): − (“−” indicates less than 50% inhibition at 10 μM)
A4: inhibition of radioligand binding ([9]; human MC4 membranes): + (“+” indicates greater than 50% inhibition at 10 μM)
A9: inhibition of radioligand binding ([10]; human NPY-Y1 membranes): − (“−” indicates less than 50% inhibition at 10 μM)
A3: inhibition of radioligand binding ([11]; human MC3 membranes): + (“+” indicates greater than 50% inhibition at 10 μM)

COC[C@H]1OC(OCc2ccc3ccccc3c2)[C@H](NC(=O)CCCNC(=N)N)[C@@H](OCc2ccc(Cl)cc2)[C@@H]1O (stereo partly shown) [compound 341]
A7: inhibition of radioligand binding, human μ-opioid (MOP) [1]: + (“+” indicates greater than 50% inhibition at 10 μM)
A1: inhibition of radioligand binding, human δ-opioid (DOP) [2]: − (“−” indicates less than 50% inhibition at 10 μM)
A8: inhibition of radioligand binding, human neurokinin (NK1) [3]: + (“+” indicates greater than 50% inhibition at 10 μM)
A10: inhibition of radioligand binding, human opioid (ORL1) [4]: − (“−” indicates less than 50% inhibition at 10 μM)
A2: inhibition of radioligand binding, human κ-opioid (KOP) [5]: − (“−” indicates less than 50% inhibition at 10 μM)
A6: inhibition of radioligand binding, human melanin-concentrating hormone (MCH1) ([6]; [125I]-S36057): + (“+” indicates greater than 50% inhibition at 10 μM)
A5: inhibition of radioligand binding, human melanocortin (MC5) [7]: − (“−” indicates less than 50% inhibition at 10 μM)
A11: inhibition of radioligand binding, mouse urotensin (mUR2) [8]: − (“−” indicates less than 50% inhibition at 10 μM)
A4: inhibition of radioligand binding, human melanocortin (MC4) [9]: − (“−” indicates less than 50% inhibition at 10 μM)
A9: inhibition of radioligand binding, human neuropeptide Y (NPY-Y1) [10]: − (“−” indicates less than 50% inhibition at 10 μM)
A3: inhibition of radioligand binding, human melanocortin (MC3) [11]: − (“−” indicates less than 50% inhibition at 10 μM)

CO[C@H]1[C@H](O)[C@@H](COCc2cccc(O)c2)OC(OCc2ccc(Cl)cc2)[C@@H]1NC(=O)CNC(=N)N (stereo partly shown) [compound 155]
A7 radioligand binding, percentage inhibition [1]: − (“−” indicates less than 50% inhibition at 10 μM)
A1 radioligand binding, percentage inhibition [2]: − (“−” indicates less than 50% inhibition at 10 μM)
A8 radioligand binding, percentage inhibition [3]: − (“−” indicates less than 50% inhibition at 10 μM)
A10 radioligand binding, percentage inhibition [4]: − (“−” indicates less than 50% inhibition at 10 μM)
A2 radioligand binding, percentage inhibition [5]: − (“−” indicates less than 50% inhibition at 10 μM)
A6 radioligand binding, percentage inhibition ([6]; [125I]-S36057): − (“−” indicates less than 50% inhibition at 10 μM)
A5 radioligand binding, percentage inhibition [7]: + (“+” indicates greater than 50% inhibition at 10 μM)
A11 radioligand binding, percentage inhibition [8]: − (“−” indicates less than 50% inhibition at 10 μM)
A4 radioligand binding, percentage inhibition [9]: − (“−” indicates less than 50% inhibition at 10 μM)
A9 radioligand binding, percentage inhibition [10]: − (“−” indicates less than 50% inhibition at 10 μM)
A3 radioligand binding, percentage inhibition [11]: − (“−” indicates less than 50% inhibition at 10 μM)

CSC1O[C@H](COCc2ccc3ccccc3c2)[C@@H](O)[C@@H](OCc2ccc(-c3ccccc3)cc2)[C@H]1NC(=O)CCCN (stereo partly shown) [compound 299]
A7: inhibition of radioligand binding, human μ-opioid (MOP) [1]: − (“−” indicates less than 50% inhibition at 10 μM)
A1: inhibition of radioligand binding, human δ-opioid (DOP) [2]: − (“−” indicates less than 50% inhibition at 10 μM)
A8: inhibition of radioligand binding, human neurokinin (NK1) [3]: + (“+” indicates greater than 50% inhibition at 10 μM)
A10: inhibition of radioligand binding, human opioid (ORL1) [4]: − (“−” indicates less than 50% inhibition at 10 μM)
A2: inhibition of radioligand binding, human κ-opioid (KOP) [5]: − (“−” indicates less than 50% inhibition at 10 μM)
A6: inhibition of radioligand binding, human melanin-concentrating hormone (MCH1) ([6]; [125I]-S36057): − (“−” indicates less than 50% inhibition at 10 μM)
A5: inhibition of radioligand binding, human melanocortin (MC5) [7]: − (“−” indicates less than 50% inhibition at 10 μM)
A11: inhibition of radioligand binding, mouse urotensin (mUR2) [8]: − (“−” indicates less than 50% inhibition at 10 μM)
A4: inhibition of radioligand binding, human melanocortin (MC4) [9]: + (“+” indicates greater than 50% inhibition at 10 μM)
A9: inhibition of radioligand binding, human neuropeptide Y (NPY-Y1) [10]: − (“−” indicates less than 50% inhibition at 10 μM)
A3: inhibition of radioligand binding, human melanocortin (MC3) [11]: − (“−” indicates less than 50% inhibition at 10 μM)
